Measurements as given in patent US6756210B2, “Linoleic acid diol and glucuronide conjugate levels as diagnostic markers of disorders of abnormal regulation of cytochrome P450 metabolism of unsaturated fatty acids” (The Regents of the University of California, priority 2001, dated 2004).
“And” between values parts separate entries of the source, which are not always exact repeats. Equal entries are not always repeated. Where two headings read alike, the source gives them in different places.

Key:
[1] = tested on: SHR; assay: Systolic blood pressure in SHR (tail cuff); assay type: in vivo, rat; conditions: 6 hr after single dose (3 mg/kg DCU or equimolar)
Description: (§1) Animals. Male SHR and WKY rats 3-13 wks of age were purchased from Charles River Laboratories (Wilmington, Mass.) and housed in a controlled environment with 12 hr light/dark cycles and fed standard laboratory chow for 3 days before euthanasia. All animal use was approved by the University of California San Francisco Committee on Animal Research and followed the National Institutes of Health guidenlines for the care and use of laboratory animals. For isolation of kidney subcellular fractions, rats were anesthetized with methoxyflurane, the abdominal cavities were opened, and the kidneys were perfused with ice-cold saline. Perfused kidneys were rapidly removed, the cortex and medulla dissected out and immersed in liquid nitrogen. All tissue was stored at −80° C. until preparation of microsomes. In some cases WKY and SHR rats were housed in metabolic cages for up to three days and urine was collected over triphenylphosphine in 24 hr intervals. The urine volume was noted and aliquots were stored at −80° C. prior to extraction and quantitation of DHETs and EETs. […] Systolic blood pressure was measured at room temperature by a photoelectric tail cuff system (Model 179, IITC, Inc., Woodland Hills, Calif.) for up to four days following the dose of inhibitor. Blood pressures are reported as the average of three separate readings over a 30 min period. […]

[2] = tested on: CYP epoxygenase or -hydroxylase; assay: Renal microsomal arachidonic acid metabolism (CYP epoxygenase, hydroxylase); assay type: biochemical, rat; design: dose or concentration left out as unconfirmed
Description: Renal microsomal arachidonic acid metabolism. Microsomes, cytosol, and S9 fractions were prepared from the renal cortex or outer medulla samples from a single animal as described previously (Kroetz, D. L. et al. Mol Pharmacol 52, 362-372 (1997), Su, P. et al. Am J Physiol 275, R426-438 (1998)). Reaction conditions for the in vitro determination of arachidonic acid epoxygenase activity, metabolite extraction and HPLC analysis were described in detail elsewhere (Su, P. et al. Am J Physiol 275, R426-438 (1998)).

[3] = tested on: WKY rats; assay: Systolic blood pressure in WKY rats (tail cuff); assay type: in vivo, rat; conditions: single 3 mg/kg dose
Description: as §1

[4] = target: T1, mEH (Rattus norvegicus, UniProt P07687); conditions: previous studies, Morisseau 1999; cited from earlier work
T1 sequence (P07687 1-455): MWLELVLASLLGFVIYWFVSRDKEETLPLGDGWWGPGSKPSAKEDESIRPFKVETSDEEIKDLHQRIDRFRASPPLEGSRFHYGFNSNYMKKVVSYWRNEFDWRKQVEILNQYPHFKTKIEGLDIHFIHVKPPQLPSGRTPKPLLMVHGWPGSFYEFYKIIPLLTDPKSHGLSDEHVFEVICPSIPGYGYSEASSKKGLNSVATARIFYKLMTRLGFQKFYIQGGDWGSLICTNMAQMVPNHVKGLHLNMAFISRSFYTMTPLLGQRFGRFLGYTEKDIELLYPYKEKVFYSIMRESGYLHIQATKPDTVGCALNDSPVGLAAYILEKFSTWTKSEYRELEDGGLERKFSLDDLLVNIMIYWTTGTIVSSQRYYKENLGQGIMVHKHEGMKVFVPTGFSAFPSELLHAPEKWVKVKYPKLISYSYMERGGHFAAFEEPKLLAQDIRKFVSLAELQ

[5] = target: T2, Human sEH (HsEH) (Homo sapiens, UniProt P34913); assay: Inhibition of recombinant human sEH (HsEH); assay type: biochemical; conditions: HsEH 0.26 μM
T2 sequence (P34913 1-555): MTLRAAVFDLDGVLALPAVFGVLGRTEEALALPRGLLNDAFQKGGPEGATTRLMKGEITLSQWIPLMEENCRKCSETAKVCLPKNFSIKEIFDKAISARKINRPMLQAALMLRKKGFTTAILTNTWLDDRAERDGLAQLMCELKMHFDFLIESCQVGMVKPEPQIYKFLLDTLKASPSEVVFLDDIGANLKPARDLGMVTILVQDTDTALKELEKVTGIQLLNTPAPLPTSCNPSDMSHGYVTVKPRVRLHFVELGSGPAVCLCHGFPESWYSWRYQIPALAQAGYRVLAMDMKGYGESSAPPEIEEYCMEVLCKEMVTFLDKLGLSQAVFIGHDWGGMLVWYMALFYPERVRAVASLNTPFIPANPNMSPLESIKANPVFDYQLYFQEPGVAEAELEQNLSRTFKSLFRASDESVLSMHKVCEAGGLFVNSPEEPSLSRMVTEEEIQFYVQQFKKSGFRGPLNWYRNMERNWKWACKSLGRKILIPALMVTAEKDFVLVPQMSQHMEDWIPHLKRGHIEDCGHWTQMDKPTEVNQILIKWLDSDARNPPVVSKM

[6] = target: T3, recombinant mouse sEH (MsEH) (Mus musculus, UniProt P34914); assay: Inhibition of recombinant mouse sEH (MsEH); assay type: biochemical
T3 sequence (P34914 1-554): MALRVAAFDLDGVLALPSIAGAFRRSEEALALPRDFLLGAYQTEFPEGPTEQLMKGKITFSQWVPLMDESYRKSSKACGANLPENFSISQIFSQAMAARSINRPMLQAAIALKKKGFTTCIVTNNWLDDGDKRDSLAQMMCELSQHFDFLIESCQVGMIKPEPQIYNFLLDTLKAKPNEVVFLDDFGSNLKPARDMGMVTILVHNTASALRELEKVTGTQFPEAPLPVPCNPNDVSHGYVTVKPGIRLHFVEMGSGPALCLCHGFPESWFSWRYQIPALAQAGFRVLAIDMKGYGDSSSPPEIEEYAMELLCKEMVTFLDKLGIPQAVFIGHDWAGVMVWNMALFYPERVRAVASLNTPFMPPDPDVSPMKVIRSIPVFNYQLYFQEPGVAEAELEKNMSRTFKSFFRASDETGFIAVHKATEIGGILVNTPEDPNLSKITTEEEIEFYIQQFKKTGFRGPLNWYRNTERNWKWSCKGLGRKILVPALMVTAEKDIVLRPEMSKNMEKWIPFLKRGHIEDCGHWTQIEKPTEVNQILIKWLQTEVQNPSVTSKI

[7] = Table 1, MsEH 0.13 μM, read-out: Mouse sEH IC50
[8] = Table 2, MsEH 0.13 μM, read-out: Mouse sEH IC50

## CCCCCCCCCCCCNC(=O)NC1CCCCC1 [N-cyclohexyl-N′-dodecylurea]
[1]
  decrease in systolic blood pressure: 12±2 mm Hg and 12 mm Hg

## O=C(NC1CCCCC1)NC1CCCCC1 [DCU, N,N′-dicyclohexylurea]
[2]
  effect on CYP epoxygenase or -hydroxylase activity: no effect
[3]
  effect on blood pressure in WKY: unaffected
[4]
  inhibition of mEH: does not inhibit mEH

## CC1CCCCC1NC(=O)NC1CCCCC1 (centres unmarked) [compound 551]
[5]; Table 1
  IC50: 0.1 ± 0.01 µM
[6]; [7]
  IC50: 0.05 ± 0.01 µM

## CC(NC(=O)NC1CCCCC1)C1C2CC3CC(C2)CC1C3 (centres unmarked) [compound 358]
[5]; Table 1
  IC50: 0.18 ± 0.04 µM
[6]; [7]
  IC50: 0.05 ± 0.01 µM

## O=C(NC1CCCCC1)NC1C2CC3CC(C2)CC1C3 (centres unmarked) [compound 427]
[5]; Table 1
  IC50: 0.1 ± 0.01 µM
[6]; [7]
  IC50: 0.05 ± 0.01 µM

## CCCCCCCCCCCCNC(=O)NC1CCCCC1 [compound 297]
[5]; Table 1
  IC50: 0.1 ± 0.01 µM
[6]; [7]
  IC50: 0.05 ± 0.01 µM

## CCCCCCCCNC(=O)Nc1ccccc1 [compound 151]
[5]; Table 1
  IC50: 0.58 ± 0.01 µM
[6]
  IC50: 2.29 ± 0.03 µM

## CC(=O)c1ccc(NC(=O)NC2CCCCC2)cc1 [compound 126]
[5]; Table 1
  IC50: 0.27 ± 0.02 µM
[6]; [7]
  IC50: 0.06 ± 0.01 µM

## O=C(CCCCc1ccccc1)NC1CCCCC1 [compound 381]
[5]; Table 1
  IC50: 0.68 ± 0.03 µM
[6]; [7]
  IC50: 0.06 ± 0.01 µM

## CCCCCCCCCCCCNC(=O)NCCCC [compound 531]
[5]; Table 1
  IC50: 0.64 ± 0.03 µM
[6]; [7]
  IC50: 0.14 ± 0.02 µM

## O=C(NC1CCCCC1)OCc1cccc2ccccc12 [compound 262]
[5]; Table 1
  IC50: 0.1 ± 0.02 µM
[6]; [7]
  IC50: 0.05 ± 0.01 µM

## ON=C(c1ccccc1)C1OC1c1ccccc1 (racemic) [R=C6H5, R′=C6H5, X—Y=C═NOH, ±]
[5]; Table 2
  IC50: 0.29 ± 0.01 µM
[6]; [8]
  IC50: 3.5 ± 0.5 µM

## CCCCCCCCCCCCCNC(=O)NC1CCCCC1 [compound 354]
[5]; Table 1
  IC50: 0.1 ± 0.01 µM
[6]; [7]
  IC50: 0.05 ± 0.01 µM

## O=C(Nc1ccccc1)NC1CCCCC1 [compound 21]
[5]; Table 1
  IC50: 1.39 ± 0.02 µM
[6]; [7]
  IC50: 0.76 ± 0.02 µM

## CC(=O)C1OC1c1ccc([N+](=O)[O-])cc1 (racemic) [R=4-NO2—C6H4, R′=CH3, X—Y=C═O, ±]
[5]; Table 2
  IC50: 269 ± 5 µM
[6]; [8]
  IC50: 163 ± 11 µM

## CCCCCCNC(=O)Nc1ccccc1 [compound 157]
[5]; Table 1
  IC50: 1.43 ± 0.03 µM
[6]; [7]
  IC50: 0.85 ± 0.01 µM

## O=C(NC1CCCCC1)OCc1ccc(-c2ccccc2)cc1 [compound 259]
[5]; Table 1
  IC50: 0.1 ± 0.02 µM
[6]; [7]
  IC50: 0.45 ± 0.09 µM

## CCCCCCCCCCCCNC(=O)NC1CCC1 [compound 504]
[5]; Table 1
  IC50: 23 ± 4 µM
[6]; [7]
  IC50: 0.8 ± 0.1 µM

## O=C(NCCCCCCO)NC1CCCCC1 [compound 344]
[5]; Table 1
  IC50: 2.5 ± 0.08 µM
[6]; [7]
  IC50: 0.05 ± 0.01 µM

## CCCCCCNC(=O)Nc1ccc2ccccc2c1 [compound 143]
[5]; Table 1
  IC50: 0.57 ± 0.01 µM
[6]; [7]
  IC50: 1 ± 0.1 µM

## OC(c1ccccc1)C1OC1c1ccccc1 (racemic) [R=C6H5, R′=C6H5, X—Y=CH—OH, ±]
[5]; Table 2
  IC50: 22 ± 2 µM
[6]; [8]
  IC50: 12.6 ± 0.9 µM

## O=C(Nc1ccc(Oc2ccccc2)cc1)NC1CCCCC1 [compound 140]
[5]; Table 1
  IC50: 0.1 ± 0.01 µM
[6]; [7]
  IC50: 0.05 ± 0.01 µM

## O=C(NCCC1=CCCCC1)NC1CCCCC1 [compound 359]
[5]; Table 1
  IC50: 0.1 ± 0.01 µM
[6]; [7]
  IC50: 0.05 ± 0.01 µM

## OC(c1ccccc1)C1OC1c1ccc(-c2ccccc2)cc1 (racemic) [R=4-C6H5—C6H4, R′=C6H5, X—Y=CH—OH, ±]
[5]; Table 2
  IC50: 0.72 ± 0.03 µM
[6]; [8]
  IC50: 0.51 ± 0.04 µM

## CCCCCCCCNC(=O)NC1CCC1 [compound 181]
[5]; Table 1
  IC50: 1.71 ± 0.23 µM
[6]; [7]
  IC50: 0.52 ± 0.02 µM

## O=C(Nc1c2ccccc2nc2ccccc12)NC1CCCCC1 [compound 559]
[5]; Table 1
  IC50: 0.14 ± 0.01 µM
[6]; [7]
  IC50: 0.08 ± 0.01 µM

## CC(C)(C)CC(C)(C)NC(=O)NC1C2CC3CC(C2)CC1C3 (centres unmarked) [compound 375]
[5]; Table 1
  IC50: 0.11 ± 0.01 µM
[6]; [7]
  IC50: 0.18 ± 0.01 µM

## O=C(NCCNc1ccccc1)NC1CCCCC1 [compound 463]
[5]; Table 1
  IC50: 8.3 ± 0.4 µM
[6]; [7]
  IC50: 0.9 ± 0.07 µM

## CCCNC(=O)NC1CCCCCCCCCCC1 [compound 189]
[5]; Table 1
  IC50: 1 ± 0.2 µM
[6]; [7]
  IC50: 0.8 ± 0.03 µM

## CCCCCCNC(=O)NC1CCCCC1 [compound 286]
[5]; Table 1
  IC50: 0.07 ± 0.02 µM
[6]; [7]
  IC50: 0.11 ± 0.03 µM

## CCCCCCCCCCCNC(=O)NCCCC [compound 556]
[5]; Table 1
  IC50: 0.74 ± 0.07 µM
[6]; [7]
  IC50: 0.2 ± 0.02 µM

## CCC(C)NC(=O)NC1CCCCC1 (centres unmarked) [compound 479]
[5]; Table 1
  IC50: 5 ± 0.1 µM
[6]; [7]
  IC50: 0.6 ± 0.06 µM

## O=C(NCCCc1ccccc1)NC12CC3CC(CC(C3)C1)C2 [compound 438]
[5]; Table 1
  IC50: 0.1 ± 0.01 µM
[6]; [7]
  IC50: 0.05 ± 0.01 µM

## CCCCCCCNC(=O)NC1CCCCC1 [compound 508]
[5]; Table 1
  IC50: 0.1 ± 0.01 µM
[6]; [7]
  IC50: 0.05 ± 0.01 µM

## CCCCCCCCCNC(=O)NCCC [compound 429]
[5]; Table 1
  IC50: 1.7 ± 0.4 µM
[6]; [7]
  IC50: 0.38 ± 0.04 µM

## C(=NC1CCCCC1)=NC1CCCCC1
[5]; Table 1
  IC50: 0.47 ± 0.01 µM
[6]
  IC50: 0.25 ± 0.02 µM

## CCCCCCCCCCCCCCNC(=O)NC1CCCCC1 [compound 477]
[5]; Table 1
  IC50: 0.24 ± 0.01 µM
[6]; [7]
  IC50: 0.11 ± 0.01 µM

## CCCCCCCCNC(=O)NC1CCCCC1 [compound 168]
[5]; Table 1
  IC50: 0.12 ± 0.01 µM
[6]; [7]
  IC50: 0.06 ± 0.01 µM

## O=C(NC12CC3CC(CC(C3)C1)C2)NC12CC3CC(CC(C3)C1)C2 [compound 411]
[5]; Table 1
  IC50: 0.1 ± 0.01 µM
[6]; [7]
  IC50: 0.05 ± 0.01 µM

## COc1ccc(NC(=O)NC2CCCCC2)cc1 [compound 67]
[5]; Table 1
  IC50: 0.23 ± 0.01 µM
[6]; [7]
  IC50: 0.71 ± 0.04 µM
